This note sets out measurements from patent US11566002B2, “Substituted tetrahydrocyclopenta[C]pyrroles, substituted dihydropyrrolizines, analogues thereof, and methods using same” (priority 2018, dated 2023).

The structures appear in SMILES notation.

The first assay relates to HBV rcDNA. Put plainly: HepDE19 assay with bDNA quantitation of HBV rcDNA. The format is cell-based, hepatitis B virus. Conditions: HepDE19 cells, Tet-free medium, 7 day-incubation, rcDNA measured by Quantigene 2.0 bDNA assay, top concentration 25 μM; read-out: DE-19 bDNA EC50. On the procedure:
HepDE19 Assay with bDNA Quantitation of HBV rcDNA:
HepDE19 cell culture system is a HepG2 (human hepatocarcinoma) derived cell line that supports HBV DNA replication and cccDNA formation in a tetracycline (Tet)-regulated manner and produces HBV rcDNA and a detectable reporter molecule dependent on the production and maintenance of cccDNA (Guo, et al., 2007, J. Virol. 81:12472-12484).
HepDE19 (50,000 cells/well) were plated in 96-well collagen-coated tissue-culture treated microtiter plates in DMEM/F12 medium supplemented with 10% fetal bovine serum, 1% penicillin-streptomycin and 1 μg/mL tetracycline and incubated in a humidified incubator at 37° C. and 5% CO2 overnight. Next day, the cells were switched to fresh medium without tetracycline and incubated for 4 hours at 37° C. and 5% CO2. The cells were treated with fresh Tet-free medium with compounds at concentrations starting at 25 μM and a serial, ½ log, 8-point, titration series in duplicate. The final DMSO concentration in the assay was 0.5%. The plates were incubated for 7 days in a humidified incubator at 37° C. and 5% CO2. Following a 7 day-incubation, the level of rcDNA present in the inhibitor-treated wells was measured using a Quantigene 2.0 bDNA assay kit (Affymetrix, Santa Clara, Calif.) with HBV specific custom probe set and manufacturers instructions. Concurrently, the effect of compounds on cell viability was assessed using replicate plates, plated at a density of 5,000 cells/well and incubated for 4 days, to determine the ATP content as a measure of cell viability using the cell-titer glo reagent (CTG; Promega Corporation, Madison, Wis.) as per manufacturer's instructions. The plates were read using a Victor luminescence plate reader (PerkinElmer Model 1420 Multilabel counter) and the relative luminescence units (RLU) data generated from each well was calculated as % inhibition of the untreated control wells and analyzed using XL-Fit module in Microsoft Excel to determine EC50 and EC90 (bDNA) and CC50 (CTG) values using a 4-parameter curve fitting algorithm.
Representative compounds of the invention were tested for their abilities to inhibit formation of relaxed circular DNA (rcDNA) in a HepDE19 assay, as described elsewhere herein.
For the molecule `Cn1cc2c(c1C(=O)Nc1ccc(F)c(Cl)c1)CCC2NC(=O)OCC1(C(N)=O)CC(F)(F)C1` (single isomer, unassigned) [Compound 56, (1-Carbamoyl-3,3-difluorocyclobutyl)methyl (1-((3-chloro-4-fluorophenyl)carbamoyl)-2-methyl-2,4,5,6-tetrahydrocyclopenta[c]pyrrol-4-yl)carbamate], the EC50 came out at 0.6 µM.
On the same count and under the same terms, to `Cn1cc2c(c1C(=O)Nc1ccc(F)c(Cl)c1)CCC2NC(=O)OCc1nc[nH]n1` (single isomer, unassigned) [Compound 57, (1H-1,2,4-Triazol-3-yl)methyl (1-((3-chloro-4-fluorophenyl)carbamoyl)-2-methyl-2,4,5,6-tetrahydrocyclopenta[c]pyrrol-4-yl)carbamate] belongs 0.05 µM.
On the same count and under the same terms, next, `Cn1cc2c(c1C(=O)Nc1ccc(F)c(Cl)c1)CCC2NC(=O)OCc1nc[nH]n1` (single isomer, unassigned) [Compound 58, (1H-1,2,4-Triazol-3-yl)methyl (1-((3-chloro-4-fluorophenyl)carbamoyl)-2-methyl-2,4,5,6-tetrahydrocyclopenta[c]pyrrol-4-yl)carbamate]: 0.97 µM.
Same read-out and setting: next, `Cn1cc2c(c1C(=O)Nc1ccc(F)c(Cl)c1)CCC2NC(=O)OCc1c[nH]nn1` (single isomer, unassigned) [Compound 59, (1H-1,2,3-Triazol-4-yl)methyl (1-((3-chloro-4-fluorophenyl)carbamoyl)-2-methyl-2,4,5,6-tetrahydrocyclopenta[c]pyrrol-4-yl)carbamate]: 4.2 µM; `Cn1cc2c(c1C(=O)Nc1ccc(F)c(Cl)c1)CCC2NC(=O)OCc1c[nH]nn1` (single isomer, unassigned) [Compound 60, (1H-1,2,3-Triazol-4-yl)methyl (1-((3-chloro-4-fluorophenyl)carbamoyl)-2-methyl-2,4,5,6-tetrahydrocyclopenta[c]pyrrol-4-yl)carbamate]: 0.06 µM.

Staying with this assay, now noted: Hepatitis B virus, HepDE19, 168 h, HepDE19 cells, Tet-free medium, 7 day-incubation, rcDNA measured by Quantigene 2.0 bDNA assay, top concentration 25 μM; read-out: DE-19 bDNA EC50.
In the case of `Cc1cc(NC(=O)c2c3c(cn2C)C(NC(=O)OCc2ncn(C)n2)CC3)ccc1F` (single isomer, unassigned) [Compound 62, (1-methyl-1H-1,2,4-triazol-3-yl)methyl (1-((4-fluoro-3-methylphenyl)carbamoyl)-2-methyl-2,4,5,6-tetrahydrocyclopenta[c]pyrrol-4-yl)carbamate], the EC50 was 0.09 µM.
On the same count and under the same terms, to `Cn1cnc(COC(=O)NC2CCc3c2cn(C)c3C(=O)Nc2ccc(F)c(F)c2)n1` (single isomer, unassigned) [Compound 64, (1-methyl-1H-1,2,4-triazol-3-yl)methyl (1-((3,4-difluorophenyl)carbamoyl)-2-methyl-2,4,5,6-tetrahydrocyclopenta[c]pyrrol-4-yl)carbamate] belongs 0.41 µM.
Take `Cn1cnc(COC(=O)NC2CCc3c2cn(C)c3C(=O)Nc2ccc(F)cc2)n1` (single isomer, unassigned) [Compound 65, (1-methyl-1H-1,2,4-triazol-3-yl)methyl (1-((4-fluorophenyl)carbamoyl)-2-methyl-2,4,5,6-tetrahydrocyclopenta[c]pyrrol-4-yl)carbamate]: the EC50 came to 0.81 µM.
The same measure, in the same setting: to `Cn1cnc(COC(=O)NC2CCc3c2cn(C)c3C(=O)Nc2cccc(F)c2)n1` (single isomer, unassigned) [Compound 66, (1-methyl-1H-1,2,4-triazol-3-yl)methyl (1-((3-fluorophenyl)carbamoyl)-2-methyl-2,4,5,6-tetrahydrocyclopenta[c]pyrrol-4-yl)carbamate] belongs 0.9 µM.
Still for that read-out and setting: to `Cn1cnc(COC(=O)NC2CCc3c2cn(C)c3C(=O)Nc2ccc(F)c(C#N)c2)n1` (single isomer, unassigned) [Compound 67, (1-methyl-1H-1,2,4-triazol-3-yl)methyl (1-((3-cyano-4-fluorophenyl)carbamoyl)-2-methyl-2,4,5,6-tetrahydrocyclopenta[c]pyrrol-4-yl)carbamate] belongs 0.06 µM; to `Cn1cnc(COC(=O)NC2CCc3c2cn(C)c3C(=O)Nc2ccnc(Cl)c2)n1` (single isomer, unassigned) [Compound 68, (1-methyl-1H-1,2,4-triazol-3-yl)methyl (1-((2-chloropyridin-4-yl)carbamoyl)-2-methyl-2,4,5,6-tetrahydrocyclopenta[c]pyrrol-4-yl)carbamate], 0.66 µM.
On to `Cn1cnc(COC(=O)NC2CCc3c2cn(C)c3C(=O)Nc2ccc(F)c(C(F)(F)F)c2)n1` (single isomer, unassigned) [Compound 69, (1-Methyl-1H-1,2,4-triazol-3-yl)methyl (1-((4-fluoro-3-(trifluoromethyl)phenyl)carbamoyl)-2-methyl-2,4,5,6-tetrahydrocyclopenta[c]pyrrol-4-yl)carbamate], for which the EC50 stood at 0.28 µM.
For the molecule `Cn1cnc(COC(=O)NC2CCc3c2cn(C)c3C(=O)Nc2ccc(F)c(C(F)F)c2)n1` (single isomer, unassigned) [Compound 70, (1-Methyl-1H-1,2,4-triazol-3-yl)methyl (1-((3-(difluoromethyl)-4-fluorophenyl)carbamoyl)-2-methyl-2,4,5,6-tetrahydrocyclopenta[c]pyrrol-4-yl)carbamate], the EC50 turned out to be 0.07 µM.
Turning to `Cn1cnc(COC(=O)NC2CCc3c2cn(C)c3C(=O)Nc2cc(F)c(F)c(F)c2)n1` (single isomer, unassigned) [Compound 71, (1-methyl-1H-1,2,4-triazol-3-yl)methyl (2-methyl-1-((3,4,5-trifluorophenyl)carbamoyl)-2,4,5,6-tetrahydrocyclopenta[c]pyrrol-4-yl)carbamate], the EC50 was 0.18 µM.
For `Cn1cnc(COC(=O)NC2CCc3c2cn(C)c3C(=O)Nc2ccnc(C(F)(F)F)c2)n1` (single isomer, unassigned) [Compound 73, (1-methyl-1H-1,2,4-triazol-3-yl)methyl (2-methyl-1-((2-(trifluoromethyl)pyridin-4-yl)carbamoyl)-2,4,5,6-tetrahydrocyclopenta[c]pyrrol-4-yl)carbamate], the EC50 stood at 0.54 µM.
Still for that read-out and setting: to `Cn1cc2c(c1C(=O)Nc1ccc(F)c(Cl)c1)CCCC2N` (single isomer, unassigned) [Compound 75, 4-Amino-N-(3-chloro-4-fluorophenyl)-2-methyl-4,5,6,7-tetrahydro-2H-isoindole-1-carboxamide] belongs 2.1 µM.
Same read-out and setting: next, `Cn1cc2c(c1C(=O)Nc1ccc(F)c(Cl)c1)CCCC2NC(=O)C1CC1` (single isomer, unassigned) [Compound 76, N-(3-chloro-4-fluorophenyl)-4-(cyclopropanecarboxamido)-2-methyl-4,5,6,7-tetrahydro-2H-isoindole-1-carboxamide]: 1 µM.

The same assay, now with this note: Hepatitis B virus, HepDE19, 168 h, read-out: DE-19 bDNA EC50 (μM), HepDE19 cells, Tet-free medium, 7 day-incubation, rcDNA measured by Quantigene 2.0 bDNA assay, top concentration 25 μM.
Consider `COC(=O)NC1CCCc2c1cn(C)c2C(=O)Nc1ccc(F)c(Cl)c1` (single isomer, unassigned) [Compound 74, Methyl (1-((3-chloro-4-fluorophenyl)carbamoyl)-2-methyl-4,5,6,7-tetrahydro-2H-isoindol-4-yl)carbamate], for which the EC50 amounted to 0.61 µM.

Still in this assay, the particulars now being: read-out: DE-19 bDNA EC50; HepDE19 cells, Tet-free medium, 7 day-incubation, rcDNA measured by Quantigene 2.0 bDNA assay, top concentration 25 μM.
With `Cn1ccc(COC(=O)NC2CCCc3c2cn(C)c3C(=O)Nc2ccc(F)c(Cl)c2)n1` (single isomer, unassigned) [Compound 77, (1-Methyl-1H-pyrazol-3-yl)methyl(1-((3-chloro-4-fluorophenyl)carbamoyl)-2-methyl-4,5,6,7-tetrahydro-2H-isoindol-4-yl)carbamate], the EC50 was found to be 0.07 µM.
